The target of series [1] is rat native NET (Rattus norvegicus, UniProt Q63380). The series can be described thus: [3H]-NE uptake inhibition in rat cortical synaptosomes. Particulars: Rat; mean (95% CI), 3 to 9 experiments. The series is classed as biochemical. An excerpt:
(§1) The in vitro pharmacology of TD-9855 (4-[2-(2, 4, 6-trifluorophenoxymethyl)phenyl]piperidine; Figure 1) at human recombinant and rat native monoamine transporters was characterized as described previously ([Tsuruda et al., 2010]; [Shen et al., 2013]). Radioligands were sourced commercially (Perkin Elmer Life Sciences or GE Healthcare Life Sciences). Briefly, membranes prepared from HEK293 (Human Embryonic Kidney 293) cells stably-transfected with human recombinant SERT (HEK293-hSERT), NET (HEK293-hNET), or DAT ([…]) were incubated for 1hr at 22°C in the absence, or presence, of TD-9855 and [^3H]-citalopram (1.0nM) for SERT, [^3H]-nisoxetine (2.0nM) for NET, and [^3H]-WIN35428 (3.0nM) for DAT in 50mM Tris-HCl, 120mM NaCl, 5mM KCl, 0.025% BSA, 100 μM ascorbic acid, pH 7.4. Rat cortical membrane preparations were incubated with [^3H]-citalopram (2.0nM) for SERT or [^3H]-nisoxetine (4.0nM) for NET for 1hr at 22°C. […] Binding and uptake assays were terminated by rapid filtration and radioactivity, determined by liquid scintillation spectroscopy.

Series [2] relates to rat native NET. Described as above. The series is classed as biochemical. As to conditions: rat cortical synaptosomes, uptake.
From the text: as §1

Series [3] has as its target T1, rat native DAT (Rattus norvegicus, UniProt P23977).
T1 construct: at human recombinant and rat native monoamine transporters; from tissue; host or cells: rat striatal synaptosomes
The series can be described thus: [3H]-DA uptake inhibition in rat striatal synaptosomes. The series is classed as biochemical. Particulars: mean (95% CI), 3 to 9 experiments, read-out: Neurotransmitter Uptake Inhibition: pIC50 DAT (converted).
From the text: as §1

Series [4] concerns the target T2, human recombinant DAT (Homo sapiens, UniProt Q01959).
T2 construct: expressed in transfected cells; 'hDAT cells' for uptake
Nature of the series: [3H]-WIN35428 equilibrium binding, CHO-K1-hDAT membranes. Particulars: mean (95% CI), 3 to 9 experiments, read-out: Transporter Binding: pKi DAT (converted).
From the text: as §1

Series [5] addresses T3, rat native SERT (Rattus norvegicus, UniProt P31652).
T3 construct: at human recombinant and rat native monoamine transporters; from tissue
Nature of the series: [3H]-citalopram binding, rat cortical membranes. As to conditions: mean (95% CI), 3 to 9 experiments, read-out: Transporter Binding: pKi SERT (converted).
From the text: as §1

A short description of series [6]: Human plasma pharmacokinetics. As to conditions: 20mg single oral dose, Day 1, n = 3. The series is classed as in vivo. The method, then: Four 6mL samples were drawn at 2, 4, 6, and 24hr post TD-9855 dosing. Three additional 6mL samples were drawn prior to each PET scan and approximately 60 and 120min after the beginning of each PET scan. Plasma samples were analyzed for TD-9855 concentrations by a validated LC-MS/MS method. The lower limit of quantification for TD-9855 was 0.05ng/mL.

Series [7] has as its target NET (Homo sapiens, UniProt P23975). The series can be described thus: Transporter binding kinetics in vitro at human NET.
On the set-up of series [8]: method as in Theravance Biopharma US, Inc., data on file. Particulars: rat; ref Theravance Biopharma US, Inc., data on file; cited from earlier work.
The target in series [9] is SERT (Homo sapiens, UniProt P31645). Nature of the series: [3H]-citalopram equilibrium binding, HEK293-hSERT membranes. Particulars: mean (95% CI), 3 to 9 experiments, read-out: Transporter Binding: pKi SERT (converted). Also noted: expressed in transfected cells; host or cells: HEK293 (HEK293-hSERT), stably transfected.
From the text: as §1

Sequence of NET (P23975 whole entry): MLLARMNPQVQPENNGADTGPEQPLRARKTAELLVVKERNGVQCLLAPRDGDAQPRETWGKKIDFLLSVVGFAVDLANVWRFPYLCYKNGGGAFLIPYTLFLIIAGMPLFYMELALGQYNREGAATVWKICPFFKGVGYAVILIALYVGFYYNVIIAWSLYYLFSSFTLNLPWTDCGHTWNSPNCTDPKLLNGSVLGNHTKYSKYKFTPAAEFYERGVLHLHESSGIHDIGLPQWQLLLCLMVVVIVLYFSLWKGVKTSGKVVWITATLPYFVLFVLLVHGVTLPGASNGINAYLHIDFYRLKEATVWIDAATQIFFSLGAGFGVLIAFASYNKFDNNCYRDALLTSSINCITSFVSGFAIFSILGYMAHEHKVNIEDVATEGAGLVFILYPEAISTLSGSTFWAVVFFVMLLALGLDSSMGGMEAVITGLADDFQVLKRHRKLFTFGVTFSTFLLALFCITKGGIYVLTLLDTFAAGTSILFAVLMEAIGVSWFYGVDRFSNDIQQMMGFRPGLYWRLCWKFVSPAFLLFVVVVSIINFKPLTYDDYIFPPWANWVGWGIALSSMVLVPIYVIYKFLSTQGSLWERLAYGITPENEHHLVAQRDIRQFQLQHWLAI
T3 sequence (P31652 whole entry): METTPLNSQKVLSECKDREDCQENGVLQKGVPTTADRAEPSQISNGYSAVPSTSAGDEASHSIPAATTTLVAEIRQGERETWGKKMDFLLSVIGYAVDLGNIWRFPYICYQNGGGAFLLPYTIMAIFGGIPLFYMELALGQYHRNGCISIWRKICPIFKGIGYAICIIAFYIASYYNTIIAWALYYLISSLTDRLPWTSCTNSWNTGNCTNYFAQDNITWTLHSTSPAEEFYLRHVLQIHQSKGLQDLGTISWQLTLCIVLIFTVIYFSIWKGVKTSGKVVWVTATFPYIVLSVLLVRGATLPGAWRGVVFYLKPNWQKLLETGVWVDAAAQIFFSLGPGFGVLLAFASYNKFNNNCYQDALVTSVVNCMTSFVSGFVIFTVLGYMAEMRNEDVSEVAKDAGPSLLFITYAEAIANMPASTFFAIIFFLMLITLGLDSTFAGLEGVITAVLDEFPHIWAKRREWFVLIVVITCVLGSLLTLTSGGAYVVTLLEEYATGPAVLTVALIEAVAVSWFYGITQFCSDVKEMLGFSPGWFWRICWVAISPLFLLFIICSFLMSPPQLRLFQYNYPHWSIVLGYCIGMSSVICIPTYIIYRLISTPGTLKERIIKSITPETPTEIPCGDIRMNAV
T2 sequence (Q01959 whole entry): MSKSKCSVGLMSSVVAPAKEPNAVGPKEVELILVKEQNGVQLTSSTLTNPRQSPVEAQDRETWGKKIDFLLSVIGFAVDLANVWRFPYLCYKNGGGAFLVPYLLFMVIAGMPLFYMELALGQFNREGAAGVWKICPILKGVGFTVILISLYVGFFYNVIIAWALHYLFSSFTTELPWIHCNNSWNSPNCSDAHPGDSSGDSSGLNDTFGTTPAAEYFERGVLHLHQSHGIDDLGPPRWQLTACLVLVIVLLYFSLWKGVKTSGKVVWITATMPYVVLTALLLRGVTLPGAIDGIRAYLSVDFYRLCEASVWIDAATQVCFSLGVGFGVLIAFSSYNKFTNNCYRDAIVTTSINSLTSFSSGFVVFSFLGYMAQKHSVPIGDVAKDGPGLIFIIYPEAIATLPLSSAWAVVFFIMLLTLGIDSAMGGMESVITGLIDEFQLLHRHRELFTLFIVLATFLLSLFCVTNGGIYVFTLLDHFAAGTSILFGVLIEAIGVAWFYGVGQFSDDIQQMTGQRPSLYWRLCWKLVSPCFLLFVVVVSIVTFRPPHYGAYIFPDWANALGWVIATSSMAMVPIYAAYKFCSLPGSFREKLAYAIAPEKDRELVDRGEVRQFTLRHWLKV
Sequence of SERT (P31645 whole entry): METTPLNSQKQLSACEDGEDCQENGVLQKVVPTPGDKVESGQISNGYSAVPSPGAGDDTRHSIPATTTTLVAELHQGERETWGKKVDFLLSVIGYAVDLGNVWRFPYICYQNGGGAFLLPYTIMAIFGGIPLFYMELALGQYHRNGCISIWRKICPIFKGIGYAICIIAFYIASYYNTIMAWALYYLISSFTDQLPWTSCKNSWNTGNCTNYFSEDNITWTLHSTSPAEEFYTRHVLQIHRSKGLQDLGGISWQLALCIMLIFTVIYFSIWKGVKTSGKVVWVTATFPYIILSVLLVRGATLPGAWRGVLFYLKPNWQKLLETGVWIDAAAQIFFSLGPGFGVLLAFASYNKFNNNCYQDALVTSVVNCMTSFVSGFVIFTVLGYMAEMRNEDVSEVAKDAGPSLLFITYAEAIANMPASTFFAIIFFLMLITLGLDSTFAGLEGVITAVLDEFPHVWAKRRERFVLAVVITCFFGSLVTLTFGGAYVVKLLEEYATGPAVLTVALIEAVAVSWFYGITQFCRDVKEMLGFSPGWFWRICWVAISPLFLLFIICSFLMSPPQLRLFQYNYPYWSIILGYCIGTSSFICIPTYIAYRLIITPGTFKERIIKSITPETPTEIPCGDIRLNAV
Sequence of rat native NET (Rattus norvegicus, UniProt Q63380) (Q63380 1-617): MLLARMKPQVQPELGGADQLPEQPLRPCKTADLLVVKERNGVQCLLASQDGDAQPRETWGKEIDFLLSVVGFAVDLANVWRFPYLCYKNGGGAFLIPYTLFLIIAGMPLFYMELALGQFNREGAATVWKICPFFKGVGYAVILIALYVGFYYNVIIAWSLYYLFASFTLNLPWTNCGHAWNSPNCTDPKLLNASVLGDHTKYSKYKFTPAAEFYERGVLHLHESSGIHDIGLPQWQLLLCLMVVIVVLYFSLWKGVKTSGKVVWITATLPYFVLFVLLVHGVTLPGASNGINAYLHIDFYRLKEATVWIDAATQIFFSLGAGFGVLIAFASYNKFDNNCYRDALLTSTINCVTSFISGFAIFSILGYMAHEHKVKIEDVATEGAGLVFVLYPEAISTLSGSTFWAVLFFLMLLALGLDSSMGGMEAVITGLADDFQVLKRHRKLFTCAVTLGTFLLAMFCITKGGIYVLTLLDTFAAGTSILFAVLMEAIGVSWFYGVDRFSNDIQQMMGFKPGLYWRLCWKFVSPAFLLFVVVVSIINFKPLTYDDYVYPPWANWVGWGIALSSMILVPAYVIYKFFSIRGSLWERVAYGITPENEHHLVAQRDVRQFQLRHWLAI
T1 sequence (P23977 whole entry): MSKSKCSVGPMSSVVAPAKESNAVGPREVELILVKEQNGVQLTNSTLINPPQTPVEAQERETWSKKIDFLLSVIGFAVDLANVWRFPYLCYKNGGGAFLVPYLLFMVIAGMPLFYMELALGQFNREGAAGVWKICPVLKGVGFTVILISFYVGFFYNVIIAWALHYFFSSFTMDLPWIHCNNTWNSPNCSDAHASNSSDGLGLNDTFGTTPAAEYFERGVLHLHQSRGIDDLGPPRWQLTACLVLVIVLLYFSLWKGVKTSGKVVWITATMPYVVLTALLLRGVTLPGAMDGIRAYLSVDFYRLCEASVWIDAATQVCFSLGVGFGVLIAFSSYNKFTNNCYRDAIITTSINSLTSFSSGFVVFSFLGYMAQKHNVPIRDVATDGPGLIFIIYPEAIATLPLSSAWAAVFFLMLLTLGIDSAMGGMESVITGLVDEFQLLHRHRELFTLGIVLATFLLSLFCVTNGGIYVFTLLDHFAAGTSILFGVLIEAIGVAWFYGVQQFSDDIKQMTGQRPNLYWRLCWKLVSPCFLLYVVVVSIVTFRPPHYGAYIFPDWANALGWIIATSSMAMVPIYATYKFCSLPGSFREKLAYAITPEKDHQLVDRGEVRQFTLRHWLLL

For the compound `Fc1cc(F)c(OCc2ccccc2C2CCNCC2)c(F)c1` [TD-9855, 4-[2-(2,4,6-trifluorophenoxymethyl)phenyl]piperidine], the “Neurotransmitter Uptake Inhibition: pIC50 NET” value in series [1] is 8.9 (8.6, 9.1). For the same compound, the “functional selectivity for NET over SERT” value in series [2] worked out at 10 fold. For the same compound, the IC50 in [3] is 126 nM. The Ki was 200 nM in series [4], 3.16 nM in series [5] and 3.16 nM in series [9]. Besides, the “mean plasma concentration at SERT scan” value in series [6] was determined as 6.35 ng/mL. The kon in [7] (read-out: association rate constant at NET (converted)) was 917000 M⁻¹ s⁻¹. For the same compound, in [7] (read-out: dissociation rate constant at NET (converted)), the koff was 0.00115 s⁻¹. Moreover, the plasma protein binding in [8] is listed as 90.2%.

Values taken from paper PMC4368888, “Preclinical to Clinical Translation of CNS Transporter Occupancy of TD-9855, a Novel Norepinephrine and Serotonin Reuptake Inhibitor” (International Journal of Neuropsychopharmacology, 2015).
